# Reference: the NIST ThermoML archive (doi:10.1021/acs.jced.9b00354)
# ± gives the expanded uncertainty stated by the source.
# Test: mn = molality of the nth substance listed, in mol/kg
# Conditions: 308.15 K, 100 kPa, Liquid, m1 = 0.0148
smiles,measurement,setting,value
O=S(=O)([O-])[O-].[Ca+2] [calcium sulfate] + O,speed of sound,Single path-length method,1521.4 ± 0.7 m/s
same,mass density,Vibrating tube method,995.9 ± 10 kg/m3
